Reference: patent US5637309A, “Physiologically active substance-prolonged releasing-type pharmaceutical preparation” (Shiseido Company, Ltd., priority 1993, dated 1997)

How the values were obtained:
[1] = relative to SEQ ID NO: 2; cited from earlier work
[2] = system: basilar artery; experiment: Cerebral vasospasm inhibition test on maxadilan (SEQ ID NO: 3) by cisterna puncture, angiography of the basilar artery; assay type: in vivo, Japanese white rabbit; conditions: aqueous solution, 7 μg per kg
Text: Cerebral vasospasm inhibition test on maxadilan (SEQ ID NO: 3)
A Japanese white rabbit (male, weighing 2-3 kg) was subjected to general anesthesia by injection of sodium pentobarbital through the auricular vein. After the rabbit was retained so as not to move, the surroundings of the punctured vein were disinfected with sterilized ethanol, a self-retaining needle was punctured into the vein, and immediately thereafter, a silicone-made extension tube equipped, at one end, with a three way cock connected at the two ways with 10-ml syringes each containing physiological saline and connected at the residual way with a 10-ml syringe containing sodium pentobarbital was connected to the self-retaining needle (when the blood vessel is thin, the blood vessel is stimulated by fingers to dilate it). […]
A spot for angiography was determined by transillumination, the head was fast fixed, back flow of the blood was confirmed, and 0.8 ml of a contrast medium was injected under a certain pressure (2.3 kg/cm^2). […]
Groups of rabbits, one group consisting of 5 animals, were treated as mentioned above, and among them, rabbits were selected wherein when the basilar artery was divided, starting from the junction from the vertebral artery, into three equal parts, and the diameter at the middle point was measured, spasm occurred at a level of 18% or more. […]

Substance: SEQ ID NO: 3: peptide wherein an amino acid sequence residue GSIL- is bonded to the N-terminus of SEQ ID NO: 1 maxadilan
- Vasodilative action (particularly, erythema activities), times higher than that of SEQ ID NO: 2 [1]: about 10 times
- Inhibition of spasm compared to the sterile water administration group ([2]; 3 days after blood injection): spasm was significantly inhibited
- Duration of significant inhibition of spasm (from immediately after the administration) ([2]; vs sterile water group): about 4 hours
